From ChEMBL document CHEMBL3507680, “University of Dundee, Gates Library screen for HepG2 cell viability”

assay: Human HepG2 cell viability assay in 384 well format; type: toxicity, cell-based; parameters: dose 125 nL, time 70.5 hour; cytotoxicity at 70.5 h: concentration not given beside the values; conditions: HepG2 cells, read-out: Inhibition

SMILES | cytotoxicity at 70.5 h
Cc1oc(-c2nc(C#N)c(NCC(C)C)o2)cc1S(=O)(=O)N1CCCC1 | -13.1%
Cc1ccc(CN2CCC3(CC2)CCN(Cc2ccco2)CC3)cc1 | -6.1%
COc1ncccc1C(=O)N1CCCC1c1nc(-c2ccccc2)no1 (configuration not stated) | -5.54%
O=C(Cc1ccccn1)N1CCN(C(=O)CC2CCCC2)CC1 | -1.56%
CC(O)CN1CCN(C(=O)CCOC(C)C)CC1 (configuration not stated) | -3.79%
O=C(NC1CCCC1)c1cc(C2CCCNC2)n[nH]1 (configuration not stated) | -3.17%
COc1ccc2c(ccn2CCC(=O)N[C@H](C(=O)O)C(C)C)c1 | -8.62%
COC(=O)CNC(=O)c1ccc(OC2CCN(S(C)(=O)=O)CC2)c(Cl)c1 | -4.88%
Cc1ccc(-c2ncc(C(=O)N3CCC[C@H](N)C3)c(O)n2)cc1 | -6.29%
Cc1ccc(C(=O)NC2CCCCNC2=O)c(=O)[nH]1 (configuration not stated) | -6.58%
CC(Cn1ccnc1)NCc1cc(Br)c2c(c1)OCO2 (configuration not stated) | 12.5%
Cc1nc(C)n(CC2CCCN2Cc2nc(C3CC3)no2)n1 (configuration not stated) | -5.43%
CC(C)C(C)(CNC(=O)OC(C)(C)C)NC(=O)c1cnccn1 (configuration not stated) | 2.42%
O=S(=O)(C1CC1)N1C[C@H]2CCC[C@@]2(COCc2ccccn2)C1 | -14.3%
COc1ccc(COCC(O)CNC(=O)c2cnc(C)cn2)cc1 (configuration not stated) | -8.25%
Cc1cccnc1NC(=O)C1CCN(C(=O)C(C)C)CC1 | -19.2%
CCC(CC)c1nnc(NC(=O)NC(C)Cn2cccn2)s1 (configuration not stated) | 12.3%
CCc1nc(C(=O)N2CC(C)CN(C)c3ccccc32)c[nH]1 (configuration not stated) | -2.27%
Cc1nc(CNC(=O)c2cc(Cn3ccnc3C(C)C)[nH]n2)sc1C | -14.3%
NS(=O)(=O)c1ccc(NC(=O)CSc2ccc3c(c2)CCC3)cc1 | -2.39%
O=C1CC(c2ccsc2)c2cnn(C3CCCC3)c2N1 (configuration not stated) | -9.93%
COc1ccc(C(=O)NCc2ccco2)nn1 | -6.23%
CCOC1COC2(CCN(Cc3cccc(C#N)c3)CC2)C1 (configuration not stated) | -8.68%

SMILES | cytotoxicity at 70.5 h
Cn1cccc1C(CNC(=O)c1ccc(F)cc1F)N1CCCCCC1 (configuration not stated) | 34.1%
CCc1ccc(CN2CCN(c3ccc(Cl)nn3)CC2)nc1 | -4.56%
CN(C)C(=O)CN1C[C@@H]2CC[C@H](C1)N(Cc1ccc(Cl)cc1Cl)C2 | 2.51%
O=C([C@H]1COC[C@H]2CN(C3CCOCC3)C[C@H]21)N1CCCCO1 | 4.24%
Cn1cnnc1-c1cncc(NCc2cccc3c2OC(C)(C)C3)c1 | 8.22%
CCc1csc(C2CCCN(C(=O)c3ccnc(N(C)C)c3)C2)n1 (configuration not stated) | 19.9%
Cc1ccc(CC(=O)Nc2cc(C(C)C)n[nH]2)cn1 | 24.6%
N#Cc1ncn(CC(=O)Nc2cc(Cl)ccc2F)n1 | -3.28%
COc1ccccc1C(=O)NCC(c1cccn1C)N1CCOCC1 (configuration not stated) | -6.22%
Cc1nc(C2CCCN(C(=O)c3ccc(Cl)cn3)C2)no1 (configuration not stated) | -5.54%
COc1ccnc(N2CCN(C(=O)Cc3csc(C)n3)CC2)n1 | 1.2%
Cc1ccc(C2(O)CCN(C(=O)c3ccc(S(N)(=O)=O)cc3)CC2)nc1 | -12.2%
COc1cccc(C2C3=C(COC3=O)Nc3[nH]nc(C)c32)c1OC (configuration not stated) | -3.26%
CNc1cc(-c2nc(CCN3CCCC3=O)no2)ccn1 | 12.1%
Cn1ccc(NC(=O)CN2CCN(C3CCCC3)C(=O)C2)n1 | -4.86%
CNC(=O)C1CN(c2ccnc(C)n2)CCN1Cc1ccccc1 (configuration not stated) | -3.79%
CC(NC(=O)c1cccs1)C(=O)NS(=O)(=O)Cc1ccc(C#N)cc1 (configuration not stated) | 4.04%
Cn1cnc2c1CCN(Cc1csc(-c3ccccc3F)n1)C2 | -3.29%
C[C@H]1CN(c2ccccn2)C[C@@]12CCN(Cc1cccnc1)C2=O | -0.624%
CC(=O)Nc1cnc(Oc2ccccc2F)nc1 | -5.65%
Cc1nc(C)c(CC(=O)N2CCC(c3ccn4nccc4n3)CC2)s1 | -1.07%
Cc1cc(NC(=O)CCc2ccsc2)n(C)n1 | -9.51%
Cc1csc(CNC(=O)N(C)Cc2ccc3c(c2)OCCO3)n1 | -10.6%

SMILES | cytotoxicity at 70.5 h
Cc1ccc(-c2cc(C(=O)NCCC3=CCCCC3)[nH]n2)o1 | -10.6%
CC(C)(NC(=O)c1cnc(C(C)(C)C)s1)C(N)=O | 28.5%
CC(=O)Nc1nc(C(=O)NCCOc2ccccc2)cs1 | -6.89%
COc1cccc(S(=O)(=O)NC(=O)CC2CCCO2)c1 (configuration not stated) | 21.5%
CCn1ccnc1CN1CCCN(C(=O)c2ccc(C#N)cc2)CC1 | 0.738%
Cc1nc(CCN(C)C(=O)CCNC(=O)c2ccccc2F)no1 | -4.9%
CC(C)c1nc2n(n1)CC(NCc1ncc(C(C)(C)C)o1)CC2 (configuration not stated) | 0.95%
COCC(=O)N1CCC2(C1)c1ccccc1S(=O)(=O)N2C (configuration not stated) | -9.08%
Cc1cc(N2CCN(Cc3nccn3C)CC2)cc(C)n1 | 18.4%
Cc1ccc(CN2CCc3[nH]nc(C(=O)N(C)C)c3C2)o1 | -0.827%
CN(C)C(=O)N1CCN(Cc2nnc(C(C)(C)C)o2)CC1 | -4.6%
Cn1c(C(=O)NS(C)(=O)=O)ccc1-c1ccccc1 | -6.29%
CN1CC(c2ccccc2)CC2(CCN(CC(=O)N(C)C)CC2)C1 (configuration not stated) | -8.78%
CCCc1nnc(NC2CCN(C3CCOCC3)CC2)o1 | -9.47%
CCCN1CCCn2c(nc(CNC(=O)c3ccsc3)cc2=O)C1 | -3.68%
COc1ccc(C[C@H]2CN(C3CCOCC3)CC[C@H]2OCC2CC2)cc1 | 20%
Cc1ccc(C(=O)NCC(O)c2ccc(Cl)s2)c(=O)[nH]1 (configuration not stated) | -23.1%
CC(C)CN1C(=O)C2(CCCC2)NC1c1cccnc1 (configuration not stated) | 17.9%
c1ncn(CC2CN(Cc3nc(-c4ccsc4)no3)CCO2)n1 (configuration not stated) | -6.98%
CN(Cc1ccco1)[C@@H]1CN(C(=O)c2cnccn2)C[C@@H]2CCCO[C@@H]21 | -2.85%
CNC(=O)[C@@H]1C[C@H]2CN(Cc3ccco3)C[C@H]2N1C | -15.3%
COc1ccc(CN2C[C@@H]3COC[C@@H](N4CCN(C)CC4)[C@@H]3C2)cc1 | 0.325%
CC(=O)N1CCC2(CC1)[C@@H]1CN(Cc3cccnc3)C[C@@H]1C(=O)N2C | 18.5%

SMILES | cytotoxicity at 70.5 h
Cn1cc(N2C[C@@H]3CN(S(=O)(=O)C4CC4)C[C@@H]3C2=O)cn1 | 2.74%
CCc1ncc(CN2CCN(CCOC)CC2)cn1 | 7.17%
Cc1cccc(NC(=O)c2cnc(C3CCCNC3)cn2)n1 (configuration not stated) | -2.31%
COCc1nn(C(C)C)c2c1CCN(Cc1ccc(C)s1)C2 | -8.69%
COc1ccc2c(c1)OCC(Cc1cnc(N)c(C)c1)C2 (configuration not stated) | 1.49%
Cc1nc2ccc(C(=O)N3CC[C@H](O)[C@@H](N4CCOCC4)CC3)cc2[nH]1 | 0.0805%
O=C(c1ncccn1)N1C[C@@H]2CC[C@H](Oc3cccc(F)c3)[C@@H]2C1 | -6.95%
CN(C)c1nc2n(c(=O)n1)CCN2C(=O)Nc1ccc(Cl)c(Cl)c1 | -10.9%
Cc1cc(=O)[nH]c(=O)n1-c1ccccc1Br | -2.81%
CN(c1ncc(C(N)=O)cc1Cl)C1CCC(c2ccccc2)CC1 (configuration not stated) | -3.58%
Cc1cnn(C2CCCN(C(=O)c3ccc(-n4ccnc4)cc3)C2)c1 (configuration not stated) | -17.4%
O=C(NCCc1cccc(O)c1)NC1CCN(c2ccccc2)C1=O (configuration not stated) | 1.16%
C=C(C)CN1CCCC(CNS(C)(=O)=O)C1 (configuration not stated) | -4.35%
O=C(NCc1ccco1)Nc1ccc2nc(N3CCOCC3)oc2c1 | -2.89%
O=C1NCCN(CC2CC2)C12CCN(Cc1ccc3c(c1)OCO3)CC2 | 41.2%
CCCC1CCCN(C(=O)CCn2cccn2)CC1 (configuration not stated) | 22.3%
c1cc(CN2CCCCC2)cc(NCc2cc[nH]n2)c1 | 7.51%
COc1cc(C2(C(=O)NCC(=O)NC3CC3)CC2)ccc1C | -5.44%
Cc1ccccc1CSc1ncc(Br)c(C(=O)O)n1 | -5.71%
Fc1ccc(CNCCn2cccn2)c(F)c1 | 21.2%
CC(=O)N1CCC(N[C@@H]2CO[C@H](CNC(=O)C3CCCC3)[C@H]2O)CC1 | -5.38%
COc1ccccc1CCN[C@@H]1c2ccccc2C2(CCNCC2)[C@H]1O | -4.74%
O=C(NCCCn1cncn1)c1ccc(-c2ccccc2)[nH]c1=O | -11.4%

SMILES | cytotoxicity at 70.5 h
Cc1nn(C(C)C)c(C)c1CN1CCN(C2CCCCC2)C(=O)C1 | -3.48%
COc1cccc(OCCCc2cc(C#N)ccn2)c1 | 11%
Cc1c(NC(C)C(C)C)cccc1C(=O)NCc1nnc(C)n1C (configuration not stated) | 8.29%
CN(C)C(=O)N1Cc2nnn(CC3CC3)c2C(COCC2CC2)C1 (configuration not stated) | -6.92%
Cc1nnc2n1CCN(C(=O)c1cc(Br)c[nH]1)C2 | -5.46%
COc1cc(NCc2c(C)noc2C)c(C(=O)N(C)C)cc1OC | -8.14%
N#Cc1cccc(CN2CCn3cc(CNC(=O)C4CCC4)nc3C2)c1 | -6.27%
CCCn1cc(C(=O)NC(CC(=O)O)c2ccccc2F)c(C)n1 (configuration not stated) | 6.87%
O=c1[nH]c(NCc2cccc(OC(F)F)c2)nc2c1CCNC2 | -23.8%
Cc1nc(-c2ccc(S(=O)(=O)N3CCSC3)cc2)co1 | -10.2%
CC1(C)CNC(=O)c2nc(CCN3CCC(C(N)=O)CC3)[nH]c2C1 | -11.8%
CC(=O)N1CCN([C@@H]2CC[C@@H](NC(=O)c3cc(C)cs3)[C@H]2O)CC1 | -4.78%
Cc1noc(C)c1-c1n[nH]c2c1CN(S(=O)(=O)c1cccnc1)CC2 | -6.84%
O=C(NCc1ccco1)N1CCN(Cc2ccc3c(c2)CCO3)CC1 | -6.39%
CCOC1CCN(C(=O)NCCN(C)C(=O)OC(C)(C)C)CC1 | -3.79%
Cc1nc(CN(C)Cc2nc(-c3ccncc3)no2)co1 | 3.9%
c1nc(CCNc2nc(C3CC3)nc3c2CCNCC3)c[nH]1 | -10.1%
c1ccc(CN2CCCC(c3nccnc3-n3ccnc3)C2)cc1 (configuration not stated) | -17.5%
Cc1cccc(CN2CC[C@H]3CO[C@H](CNC(=O)N(C)C)[C@H]3C2)c1 | -3.19%
CCSCCC(=O)NS(=O)(=O)c1ccc2c(c1)OCCO2 | -13.7%
